For orientation: EC50 means the concentration giving half of the maximal effect. By IC50 is commonly meant the concentration needed to halve the response being measured.

This note sets out measurements from patent US11453671B2, “Pyrazolopyrimidine inhibitors of JAK kinases and uses thereof” (Genentech, Inc., priority 2020, dated 2022).

Common to all, as to type: cell-based
For one data set, the system named is HEK-293T cells. The data set can be described thus: Cell cytotoxicity assay HEK-293T (CellTiter-Glo, 72 hours). The conditions noted are these: Table 3; 72 hours, top concentration of 50 μM; read-out: Cytotox K-293 EC50. An outline of the steps: (§1)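 HEK-293T or Jurkat E6-1 cells plated at 450 cells/well were treated the next day with a 10-point titration from 50 μM top (0.5% DMSO final). After 72 h at 37° C, viability was read by CellTiter-Glo luminescence.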
Background: ATP-based viability assays read luminescence as a measure of living cells.

The next data set concerns A549 cells. The data set can be described thus: Cell cytotoxicity assay A549 (CellTiter-Glo, 72 hours). Particulars: Table 3; 72 hours, top concentration of 50 μM; read-out: Cytotox A549 EC50. The procedure, abridged: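 A549 cells were plated overnight, then exposed for 72 h at 37 °C to a 10-point compound titration (top 50 μM, 0.5% DMSO final). Viability was read as CellTiter-Glo luminescence after 20 min at room temperature.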

The next data set has as its system Jurkat clone E6-1 cells. The data set can be described thus: Cell cytotoxicity assay Jurkat (CellTiter-Glo, 72 hours). The conditions noted are these: Table 3; 72 hours, top concentration of 50 μM; read-out: Cytotox Jurkat EC50. An outline of the steps: as §1
Data set [1] relates to JAK1 pathway: P-STAT6 in TF-1 human erythroleukemia cells + IL-13. The data set can be described thus: P-STAT6 TF-1+Interleukin-13 (IL-13) assay. Particulars: Homo sapiens, TF-1, TF-1 cells, IL-13 stimulation; read-out: Cellular JAK1 PSTAT6 TF-1 + IL13 IC50.
Data set [2] relates to JAK2 pathway: P-STAT5 in TF-1 human erythroleukemia cells + EPO. The data set can be described thus: P-STAT5 TF-1+Erythropoietin (EPO) assay. The conditions noted are these: Homo sapiens, TF-1, TF-1 cells, EPO stimulation; read-out: Cellular JAK2 PSTAT5 TF-l + EPO IC50.

Structures are written as SMILES. Where only a bound is given, the exact number is not on record here.

As to `CC(CO)S(=O)(=O)c1ccc(OC(F)F)c(-c2nn(C)cc2NC(=O)c2cnn3cccnc23)c1` (single isomer, unassigned) [Example 24, N-[3-[2-(difluoromethoxy)-5-(2-hydroxy-1-methyl-ethyl)sulfonyl-phenyl]-1-methyl-pyrazol-4-yl]pyrazolo[1,5-a]pyrimidine-3-carboxamide], the EC50 in the data set on HEK-293T cells is 22 µM; in the data set with A549 cells, at least 50 µM; in the data set with Jurkat clone E6-1 cells, 37 µM.
As to `Cn1cc(S(=O)(=O)c2ccc(OC(F)F)c(-c3nn(C)cc3NC(=O)c3cnn4cccnc34)c2)cn1` [Example 35, N-[3-[2-(difluoromethoxy)-5-(1-methylpyrazol-4-yl)sulfonyl-phenyl]-1-methyl-pyrazol-4-yl]pyrazolo[1,5-a]pyrimidine-3-carboxamide], the IC50 worked out at 0.0058 µM in data set [1] and 0.014 µM in data set [2].
The matching figures for `Cn1cc(NC(=O)c2cnn3cccnc23)c(-c2cc(S(=O)(=O)c3ccccc3)ccc2OC(F)F)n1` [Example 40, N-[3-[5-(benzenesulfonyl)-2-(difluoromethoxy)phenyl]-1-methyl-pyrazol-4-yl]pyrazolo[1,5-a]pyrimidine-3-carboxamide]: 0.0031 µM and 0.0064 µM.
With `Cn1cc(NC(=O)c2cnn3cccnc23)c(-c2cc(S(=O)(=O)c3cn[nH]c3)ccc2OC(F)F)n1` [Example 41, N-[3-[2-(difluoromethoxy)-5-(1H-pyrazol-4-ylsulfonyl)phenyl]-1-methyl-pyrazol-4-yl]pyrazolo[1,5-a]pyrimidine-3-carboxamide], the results for the IC50 in data set [1] and in data set [2] were 0.015 µM and 0.034 µM, respectively.
Regarding `Cn1cc(NC(=O)c2cnn3cccnc23)c(-c2cc(S(=O)(=O)c3ccn(C)c(=O)c3)ccc2OC(F)F)n1` [Example 44, N-[3-[2-(difluoromethoxy)-5-[(1-methyl-2-oxo-4-pyridyl)sulfonyl]phenyl]-1-methyl-pyrazol-4-yl]pyrazolo[1,5-a]pyrimidine-3-carboxamide], the IC50 in data set [1] stood at 0.014 µM; in data set [2] it was 0.015 µM.
The matching figures for `N#CCn1cc(NC(=O)c2cnn3cccnc23)c(-c2cc(S(=O)(=O)C3CC3)ccc2OC(F)F)n1` [Example 45, N-[1-(cyanomethyl)-3-[5-cyclopropylsulfonyl-2-(difluoromethoxy)phenyl]pyrazol-4-yl]pyrazolo[1,5-a]pyrimidine-3-carboxamide]: 0.01 µM and 0.038 µM.
The matching figures for `Cn1cc(NC(=O)c2cnn3cccnc23)c(-c2cc3c(cc2OC(F)F)NCCS3(=O)=O)n1` [Example 46, N-[3-[6-(difluoromethoxy)-1,1-dioxo-3,4-dihydro-2H-1lambda6,4-benzothiazin-7-yl]-1-methyl-pyrazol-4-yl]pyrazolo[1,5-a]pyrimidine-3-carboxamide]: 0.027 µM and 0.061 µM.
As for `CN(C)CCn1cc(S(=O)(=O)c2ccc(OC(F)F)c(-c3nn(C)cc3NC(=O)c3cnn4cccnc34)c2)cn1` [Example 49, N-[3-[2-(difluoromethoxy)-5-[1-[2-(dimethylamino)ethyl]pyrazol-4-yl]sulfonyl-phenyl]-1-methyl-pyrazol-4-yl]pyrazolo[1,5-a]pyrimidine-3-carboxamide], the IC50 in data set [1] was determined as 0.02 µM; in data set [2], 0.034 µM.
With `C[C@H](Cn1cc(S(=O)(=O)c2ccc(OC(F)F)c(-c3nn(C)cc3NC(=O)c3cnn4cccnc34)c2)cn1)N(C)C` [Example 59, N-[3-[2-(difluoromethoxy)-5-[1-[(2R)-2-(dimethylamino)propyl]pyrazol-4-yl]sulfonyl-phenyl]-1-methyl-pyrazol-4-yl]pyrazolo[1,5-a]pyrimidine-3-carboxamide], the IC50 worked out at 0.013 µM in data set [1] and 0.028 µM in data set [2].
